Measurements reported in patent EP0219616A1, “N,N'-dimethyl-N,N'-4,10-dioxa-3,11-dioxo-1,13-tridecylene-bis-tetrahydropapaverinium dichloride” (S O "PHARMACHIM", priority 1985, dated 1987).
Where two headings read alike, the source gives them in different places.

Assays:
[1] = Comparative stability in aqueous acidic medium, content by HPLC; type: physicochemical
Description: […] Die Prüfung wurde bei unterschiedlichen pH-Werten in dem angegebenen Intervall durch Behandlung der wässrigen Lösungen des Dichlormethylats der Formel I und des Bezylats bei einer Temperatur von 53°C während 40 Stunden durchgeführt.
Chromatografische Bedingungen: Säule mit umgekehrter Phase C18, bewegliche Phase: wässrige 0,1 M Kaliumhydrogenphosphat, enthaltend Natriumoktylhydrogensulfat (1 g/I) und Azetonitril in einem Verhältnis 1:1. Durchlaßgeschwindigkeit 1,5 ml/Min.
Es werden je 7 Proben einer 0,5%-igen wässrigen Lösung des Dichlorids I und des Dibezylats mit bestimmten pH-Werten zubereitet, was durch Zufügen von Ortophospharsäure ereicht wird. Die Proben verweilen 40 Stunden bei einer Temperatur von 53°C. Danach wird der Prozentgehalt an Dichlorid und Dibezylat in den Proben gemessen.

Neuromuskel-Übertragung = test: Sciatic nerve-gastrocnemius preparation in cats: muscle contraction on nerve stimulation (neuromuscular block); type: in vivo, Katzen; conditions: for Eintreten der Neuro-muskel-Blockierung / Wiederherstellung der Neuromuskel-Übertragung: dose 0,2 mg/kg
Description: Die Versuche wurden an Katzen unter Einführen von gleichen Dosen des Originalpräparats "Tracrium" und der Verbindung der Formel I. Es wurde das klassische Verfahren "I-schiadiensgastrocnemicus" benutzt. Es wurde eine Kontraktion des Muskels Gastrocnemicus zufolge einer Reizung des Hüftnervs (Ischiasnervs) registriert. Die Ergebnisse sind in Tabelle II dargestellt.

[2] = Solubility compared with known salts (no method given); type: physicochemical
[3] = pH 2,5; literature reference (4); cited from earlier work

COc1ccc(CC2c3cc(OC)c(OC)cc3CC[N+]2(C)CCC(=O)OCCCCCOC(=O)CC[N+]2(C)CCc3cc(OC)c(OC)cc3C2Cc2ccc(OC)c(OC)c2)cc1OC (stereo not shown) [Dichlormethylat der Formel I, N,N-Dimethyl-N,N-4,10-dioxa-3,11-dioxotridezylen-1,13-tetrachydropapaverinoil-dichlorid]
remaining at 40 h ([1]; acidic aqueous solution, pH 3, at pH 3,0 -3,27, 53°C, read-out: Prozentgehalt, Maximum): 91.9% | remaining at 40 h ([1]; acidic aqueous solution, pH interval 2,46 bis 3,77, 53°C, read-out: Prozentgehalt): 86 to 91.9% | Stabilität im Vergleich zum Bezylat ([1]; aqueous acidic medium, pH 1,7 bis 4,0, 53°C, 40 h): wesentlich stabiler | remaining at 40 h ([1]; aqueous solution, phosphoric acid, pH 2, pH 2,46, 0,5% aqueous solution, 53°C, read-out: Prozent-gehalt): 88.1% | remaining at 40 h ([1]; aqueous solution, phosphoric acid, pH 2, pH 2,75, 0,5% aqueous solution, 53°C, read-out: Prozent-gehalt): 89.5% | remaining at 40 h ([1]; aqueous solution, phosphoric acid, pH 3, pH 3,04, 0,5% aqueous solution, 53°C, read-out: Prozent-gehalt): 91.9% | remaining at 40 h ([1]; aqueous solution, phosphoric acid, pH 3, pH 3,27, 0,5% aqueous solution, 53°C, read-out: Prozent-gehalt): 91.4% | remaining at 40 h ([1]; aqueous solution, phosphoric acid, pH 3, pH 3,58, 0,5% aqueous solution, 53°C, read-out: Prozent-gehalt): 87.6% | Prozent-gehalt ([1]; pH 4,09, 0,5% aqueous solution, 53°C, 40 h, listed as Dichlor-methyl der Formel I, 2400 min): 70,4% | Eintreten der Neuro-muskel-Blockierung (Neuromuskel-Übertragung; cats): 60,3 Sek. | Wiederherstellung der Neuromuskel-Übertragung (Neuromuskel-Übertragung; cats): 29,8 Min. | Eintreten, Wiederherstellung und Dauer des Effekts der Neuromuskelübertragung im Vergleich zu "Tracrium" (Neuromuskel-Übertragung; cats, equal doses): keinen statistisch wesentlichen Unterschied | biologischer Effekt bei den pharmakologischen Prüfungen (Neuromuskel-Übertragung; same effect with smaller quantity of active substance): verbesserten biologischen Effekt | Löslichkeit im Vergleich zu dem bekannten Dijodid und den anderen Salzen derselben Gruppe [2]: bessere Löslichkeit

COc1ccc(CC2c3cc(OC)c(OC)cc3CC[N+]2(C)CCC(=O)OCCCCCOC(=O)CC[N+]2(C)CCc3cc(OC)c(OC)cc3C2Cc2ccc(OC)c(OC)c2)cc1OC (stereo not shown) [Dibezylat, Dibesylat des N,N-4,10-Dioxa-3,11-Dioxotridezylen-1,13-bis-tetrahydropapaverins, reference compound]
remaining at 40 h ([1]; acidic aqueous solution, pH 3, at pH 3,50, 53°C, read-out: Prozentgehalt, Maximum): 73.8% | remaining at 40 h ([1]; aqueous solution, phosphoric acid, pH 1, pH 1,76, 0,5% aqueous solution, 53°C, read-out: Prozent-gehalt): 60.6% | remaining at 40 h ([1]; aqueous solution, phosphoric acid, pH 2, pH 2,88, 0,5% aqueous solution, 53°C, read-out: Prozent-gehalt): 72.9% | remaining at 40 h ([1]; aqueous solution, phosphoric acid, pH 3, pH 3,16, 0,5% aqueous solution, 53°C, read-out: Prozent-gehalt): 73.5% | remaining at 40 h ([1]; aqueous solution, phosphoric acid, pH 3, pH 3,50, 0,5% aqueous solution, 53°C, read-out: Prozent-gehalt): 73.8% | remaining at 40 h ([1]; aqueous solution, phosphoric acid, pH 3, pH 3,71, 0,5% aqueous solution, 53°C, read-out: Prozent-gehalt): 72.2% | remaining at 40 h ([1]; aqueous solution, phosphoric acid, pH 4, pH 4,09, 0,5% aqueous solution, 53°C, read-out: Prozent-gehalt): 68.8% | Prozentgehalt niedriger im Vergleich zur Verbindung der Formel I ([1]; pH interval 2,46 bis 3,77, 53°C, 40 h): ~20% | Prozentgehalt des Bezylats bei maximaler Stabilität [3]: 76%

COc1ccc(CC2c3cc(OC)c(OC)cc3CC[N+]2(C)CCC(=O)OCCCCCOC(=O)CC[N+]2(C)CCc3cc(OC)c(OC)cc3C2Cc2ccc(OC)c(OC)c2)cc1OC (stereo not shown) [Tracrium, Dibesylat des N,N-4,10-Dioxa-3,11-Dioxotridezylen-1,13-bis-tetrahydropapaverins, reference compound]
Eintreten der Neuro-muskel-Blockierung (Neuromuskel-Übertragung; cats): 60,4 Sek. | Wiederherstellung der Neuromuskel-Übertragung (Neuromuskel-Übertragung; cats): 34,6 Min.
